Columns and labels:
[1] = TGA/SDTA and TGMS analysis; type: physicochemical; details: heating 25° C. to 300° C. at 10° C./min
Description: 3. TGA/SDTA and TGMS Analysis
A mass loss caused by solvent or a moisture loss from crystals was determined by thermogravimetric analysis/simultaneous differential thermal analysis (TGA/SDTA). A weight versus temperature curve was generated by monitoring the weight of samples during heating in a TGA/SDTA851e apparatus (product name, Mettler-Toledo GmbH, Switzerland). TGA/SDTA851e was calibrated with indium and aluminum samples. The sample was placed in a 100 μL aluminum crucible and sealed, and then a pin-hole was drilled therein. The crucible was heated from 25° C. to 300° C. in TGA at a heating rate of 10° C./min. Dry N2 gas was used for purging. The gas coming out of the TGA sample was analyzed by Omnistar GSD 301 T2 (product name, Pfeiffer Vacuum GmbH, Germany), which was a quadrupole mass spectrometer for analyzing a mass in the range of 0-200 amu.

[2] = Physical stability evaluation under stress conditions (XRPD before/after); type: physicochemical; details: stored at 60° C.±2° C./80% RH±5% for two days, packaged ((LPDE+N2)+silica gel 1 g+LDPE)+Al-Bag
Description: 1. XRPD Analysis A plate for obtaining an XRPD pattern was mounted on a Bruker General Area Detector Diffraction System (GADDS) equipped with a VANTEC-500 gas domain detector calibrated for intensity and geometric changes. Calibration of measurement accuracy (peak position) was performed using NIST SRM1976 standard (Corundum). Data collection was performed at room temperature using monochromatic CuKα radiation in a diffraction angle (2θ) region of 1.5° to 41.5°, the most distinct part of the XRPD pattern. The diffraction pattern of each well was collected at two 2θ ranges (1.5°≤2θ≤21.5° for a first frame and 9.5°≤2θ≤41.5° for a second frame) with an exposure time of 90 seconds for each frame. No background subtraction or curve smoothing was applied to the XRPD pattern. The carrier material used in the XRPD analysis was transparent to X-rays.
4. Experiment on Physical Stability Evaluation
Samples were packaged in the form of ((LPDE+N2)+silica gel 1 g+LDPE)+Al-Bag, and stored under stress conditions (60° C.±2° C./80% RH±5%) for two days before evaluation.

C[C@@H]1CN(C(=O)CC#N)CC=C1c1cc(NC(=O)C2CC2)nc2[nH]ccc12 [(S)-N-(4-(1-(2-cyanoacetyl)-3-methyl-1,2,3,6-tetrahydropyridin-4-yl)-1H-pyrrolo[2,3-b]pyridin-6-yl)cyclopropanecarboxamide]
start of thermal decomposition ([1]; TGA): about 260 °C
mass reduction rate (thermogravimetric analysis) ([1]; at 150° C.): 1.6%

C[C@@H]1CN(C(=O)CC#N)CC=C1c1cc(NC(=O)C2CC2)nc2[nH]ccc12 [Example 1, (S)-N-(4-(1-(2-cyanoacetyl)-3-methyl-1,2,3,6-tetrahydropyridin-4-yl)-1H-pyrrolo[2,3-b]pyridin-6-yl)cyclopropanecarboxamide]
change in the XPRD pattern before/after the stress conditions (physical stability) [2]: substantially no change in the XPRD pattern
